We go through 15 compounds from patent US20240360178A1, “MACROCYCLIC IMMUNOMODULATORS” (Bristol-Myers Squibb Company, priority 2021, published 2024).

Positions of bridges follow the written chain, without caps; N, C: chain ends. Non-standard residues stand in square brackets, D forms with d. Residues, ends and D or L forms follow the SMILES beside them. ξ: configuration not given here. *: point of attachment. Ala(1H-tetrazol-5-yl) = N[C@@H](Cc1nnn[nH]1)C(=O)O; Phe(4-COOH) = N[C@@H](Cc1ccc(C(=O)O)cc1)C(=O)O; Bip = N[C@@H](Cc1ccc(-c2ccccc2)cc1)C(=O)O; NMeY = CN[C@@H](Cc1ccc(O)cc1)C(=O)O; 4Pal = N[C@@H](Cc1ccncc1)C(=O)O; Cha = N[C@@H](CC1CCCCC1)C(=O)O; Thr(3ξ) = CC(O)[C@H](N)C(=O)O; Ala(CN) = N#CC[C@H](N)C(=O)O; Carboxymethyl = O=C(O)C*; NMeA = CN[C@@H](C)C(=O)O; Orn = NCCC[C@H](N)C(=O)O; dNMeA = CN[C@H](C)C(=O)O; Dab = NCC[C@H](N)C(=O)O; Dap = NC[C@H](N)C(=O)O; ξS = NC(CO)C(=O)O

For this assay, the target named is T1, human PD-1 (Jurkat-PD-1 cells) / PE-labeled human PD-L1-Ig (Homo sapiens, UniProt Q15116).
T1 construct: expressed in transfected cells; host or cells: Jurkat cell line over-expressing human PD-1
T1 sequence (Q15116 25-288): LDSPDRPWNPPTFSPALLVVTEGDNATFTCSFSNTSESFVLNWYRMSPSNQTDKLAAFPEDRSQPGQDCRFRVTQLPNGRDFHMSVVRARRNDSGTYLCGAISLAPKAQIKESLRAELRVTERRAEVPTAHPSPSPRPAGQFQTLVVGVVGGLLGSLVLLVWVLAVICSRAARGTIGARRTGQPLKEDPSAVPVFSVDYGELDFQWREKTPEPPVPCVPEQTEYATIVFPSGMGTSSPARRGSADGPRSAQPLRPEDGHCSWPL
The assay is described as follows: Jurkat-PD-1 Cell Binding High-Content Screening Assay (CBA); Jurkat hPD1-PDL1 assay. The settings on record: Jurkat cell line over-expressing human PD-1; PE-labeled PD-L1-Ig 20 nM final; compound incubated 2 hours at 37° C.; read-out: Jurkat HPD1-PDL1 IC50. The essentials:
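Jurkat cells overexpressing human PD-1 (8×10^3 per well, DMEM with 10% FCS) were preincubated with compound for 2 hours at 37° C. PE-labeled human PD-L1-Ig was then added at 20 nM final. Binding was quantified by high-content imaging.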
As for `CC(C)C[C@@H]1NC(=O)[C@H](Cc2c[nH]c3ccccc23)NC(=O)[C@H](CC(=O)O)NC(=O)[C@H](Cc2ccc(O)cc2)NC(=O)[C@H](Cc2ccccc2)NC(=O)CSC[C@@H](C(=O)N[C@@H](C)C(N)=O)NC(=O)[C@H]([C@@H](C)O)NC(=O)[C@H](C(C)C)NC(=O)[C@H](CC(C)C)NC(=O)[C@H](CC(N)=O)NC(=O)[C@H]2CCCN2C(=O)[C@H](CCCN)NC(=O)[C@H](C(C)C)NC(=O)[C@H](Cc2ccc(-c3ccccc3)cc2)NC1=O` [Example 1418] ({CH2CO}-FYDWL[Bip]V[Orn][dP]NLVTCA-NH2; thioether N-14), the IC50 (usually the concentration at which inhibition is half-maximal) worked out at 210 nM.
Then `CC(C)C[C@@H]1NC(=O)[C@H](Cc2c[nH]c3ccccc23)NC(=O)[C@H](CC(=O)O)NC(=O)[C@H](Cc2ccc(O)cc2)NC(=O)[C@H](Cc2ccccc2)NC(=O)CSC[C@@H](C(=O)NCC(N)=O)NC(=O)C(CO)NC(=O)[C@H](C(C)C)NC(=O)[C@H](CC(C)C)NC(=O)[C@H](CC(N)=O)NC(=O)[C@H]2CCCN2C(=O)[C@H](CCCN)NC(=O)[C@H](C(C)C)NC(=O)[C@H](Cc2ccc(-c3ccccc3)cc2)NC1=O` (stereo partly drawn) [Example 1419] ({CH2CO}-FYDWL[Bip]V[Orn][dP]NLV[ξS]CG-NH2; thioether N-14), with 120 nM.
With `CC(C)C[C@@H]1NC(=O)[C@H](Cc2c[nH]c3ccccc23)NC(=O)[C@H](CC(=O)O)NC(=O)[C@H](Cc2ccc(O)cc2)NC(=O)[C@H](Cc2ccccc2)NC(=O)CSC[C@@H](C(=O)NCC(N)=O)NC(=O)[C@H]([C@@H](C)O)NC(=O)[C@H](C(C)C)NC(=O)[C@H](CC(C)C)NC(=O)[C@H](CCN)NC(=O)[C@H]2CCCN2C(=O)[C@H](CCCN)NC(=O)[C@H](C(C)C)NC(=O)[C@H](Cc2ccc(-c3ccccc3)cc2)NC1=O` [Example 1420] ({CH2CO}-FYDWL[Bip]V[Orn][dP][Dab]LVTCG-NH2; thioether N-14), the IC50 is 130 nM.
Then `CC(C)C[C@@H]1NC(=O)[C@H](Cc2c[nH]c3ccccc23)NC(=O)[C@H](CC(=O)O)NC(=O)[C@H](Cc2ccc(O)cc2)NC(=O)[C@H](Cc2ccccc2)NC(=O)CSC[C@@H](C(=O)N[C@@H](C)C(N)=O)NC(=O)[C@H](CO)NC(=O)[C@H](C(C)C)NC(=O)[C@H](CC(C)C)NC(=O)[C@H](CCN)NC(=O)[C@H]2CCCN2C(=O)[C@H](CCCN)NC(=O)[C@H](C(C)C)NC(=O)[C@H](Cc2ccc(-c3ccccc3)cc2)NC1=O` [Example 1421] ({CH2CO}-FYDWL[Bip]V[Orn][dP][Dab]LVSCA-NH2; thioether N-14), with 60 nM; and `CC(C)C[C@@H]1NC(=O)[C@H](Cc2c[nH]c3ccccc23)NC(=O)[C@H](CC(=O)O)NC(=O)[C@H](Cc2ccc(O)cc2)NC(=O)[C@H](Cc2ccccc2)NC(=O)CSC[C@@H](C(=O)N[C@@H](C)C(N)=O)NC(=O)[C@H]([C@@H](C)O)NC(=O)[C@H](C(C)C)NC(=O)[C@H](CC(C)C)NC(=O)[C@H](CCN)NC(=O)[C@H]2CCCN2C(=O)[C@H](CCCN)NC(=O)[C@H](C(C)C)NC(=O)[C@H](Cc2ccc(-c3ccccc3)cc2)NC1=O` [Example 1422] ({CH2CO}-FYDWL[Bip]V[Orn][dP][Dab]LVTCA-NH2; thioether N-14), with 140 nM; and `CC(C)C[C@@H]1NC(=O)[C@H](Cc2c[nH]c3ccccc23)NC(=O)[C@H](CC(=O)O)NC(=O)[C@H](Cc2ccc(O)cc2)NC(=O)[C@H](Cc2ccccc2)NC(=O)CSC[C@@H](C(=O)NCC(N)=O)NC(=O)[C@H](CO)NC(=O)[C@H](C(C)C)NC(=O)[C@H](CC(C)C)NC(=O)[C@H](CCN)NC(=O)[C@H]2CCCN2C(=O)[C@H](CCCN)NC(=O)[C@H](C(C)C)NC(=O)[C@H](Cc2ccc(-c3ccccc3)cc2)NC1=O` [Example 1423] ({CH2CO}-FYDWL[Bip]V[Orn][dP][Dab]LVSCG-NH2; thioether N-14), with 100 nM.
For `CC(C)C[C@@H]1NC(=O)[C@H](Cc2c[nH]c3ccccc23)NC(=O)[C@H](CC(=O)O)NC(=O)[C@H](Cc2ccc(O)cc2)NC(=O)[C@H](CC(N)=O)NC(=O)CSC[C@@H](C(=O)NCC(N)=O)NC(=O)[C@H]([C@@H](C)O)NC(=O)[C@H](C(C)C)NC(=O)[C@H](CC(C)C)NC(=O)[C@H](CC(N)=O)NC(=O)[C@H]2CCCN2C(=O)[C@H](CCCN)NC(=O)[C@H](C(C)C)NC(=O)[C@H](Cc2ccc(-c3ccccc3)cc2)NC1=O` [Example 1424] ({CH2CO}-NYDWL[Bip]V[Orn][dP]NLVTCG-NH2; thioether N-14), the IC50 worked out at 660 nM.
As for `CC(C)C[C@@H]1NC(=O)[C@H](Cc2c[nH]c3ccccc23)NC(=O)[C@H](CC(=O)O)NC(=O)[C@H](Cc2ccc(O)cc2)NC(=O)[C@H](CC(N)=O)NC(=O)CSC[C@@H](C(=O)N[C@@H](C)C(N)=O)NC(=O)[C@H](CO)NC(=O)[C@H](C(C)C)NC(=O)[C@H](CC(C)C)NC(=O)[C@H](CC(N)=O)NC(=O)[C@H]2CCCN2C(=O)[C@H](CCCN)NC(=O)[C@H](C(C)C)NC(=O)[C@H](Cc2ccc(-c3ccccc3)cc2)NC1=O` [Example 1425] ({CH2CO}-NYDWL[Bip]V[Orn][dP]NLVSCA-NH2; thioether N-14), the IC50 turned out to be 190 nM.
Then `CC(C)C[C@@H]1NC(=O)[C@H](Cc2c[nH]c3ccccc23)NC(=O)[C@H](CC(=O)O)NC(=O)[C@H](Cc2ccc(O)cc2)NC(=O)[C@H](CC(N)=O)NC(=O)CSC[C@@H](C(=O)N[C@@H](C)C(N)=O)NC(=O)[C@H]([C@@H](C)O)NC(=O)[C@H](C(C)C)NC(=O)[C@H](CC(C)C)NC(=O)[C@H](CC(N)=O)NC(=O)[C@H]2CCCN2C(=O)[C@H](CCCN)NC(=O)[C@H](C(C)C)NC(=O)[C@H](Cc2ccc(-c3ccccc3)cc2)NC1=O` [Example 1426] ({CH2CO}-NYDWL[Bip]V[Orn][dP]NLVTCA-NH2; thioether N-14), with 220 nM; and `CC(C)C[C@@H]1NC(=O)[C@H](Cc2c[nH]c3ccccc23)NC(=O)[C@H](Cc2nn[nH]n2)NC(=O)[C@H](Cc2ccc(O)cc2)NC(=O)[C@H](Cc2ccccc2)NC(=O)CSC[C@@H](C(=O)N[C@@H](C)C(N)=O)NC(=O)[C@H](CO)NC(=O)[C@H](C(C)C)NC(=O)[C@H](CC(C)C)NC(=O)[C@H](CC(N)=O)NC(=O)[C@H]2CCCN2C(=O)[C@H](C)N(C)C(=O)[C@H](C(C)C)NC(=O)[C@H](Cc2ccc(-c3ccccc3)cc2)NC1=O` [Example 1428] ({CH2CO}-FY[Ala(1H-tetrazol-5-yl)]WL[Bip]V[NMeA][dP]NLVSCA-NH2; thioether N-14), with 370 nM; and `CC(C)C[C@@H]1NC(=O)[C@H](Cc2c[nH]c3ccccc23)NC(=O)[C@H](CC#N)NC(=O)[C@H](Cc2ccc(O)cc2)NC(=O)[C@H](Cc2ccccc2)NC(=O)CSC[C@@H](C(=O)N[C@@H](C)C(N)=O)NC(=O)[C@H](CO)NC(=O)[C@H](C(C)C)NC(=O)[C@H](CC(C)C)NC(=O)[C@H](CC(N)=O)NC(=O)[C@H]2CCCN2C(=O)[C@H](C)N(C)C(=O)[C@H](C(C)C)NC(=O)[C@H](Cc2ccc(-c3ccccc3)cc2)NC1=O` [Example 1429] ({CH2CO}-FY[Ala(CN)]WL[Bip]V[NMeA][dP]NLVSCA-NH2; thioether N-14), with 10 nM.
For the compound `CC(C)C[C@@H]1NC(=O)[C@H](Cc2c[nH]c3ccccc23)NC(=O)[C@H](CC(=O)O)NC(=O)[C@H](Cc2ccc(C(=O)O)cc2)NC(=O)[C@H](Cc2ccc(OCC(=O)O)cc2)NC(=O)CSC[C@@H](C(=O)N[C@@H](C)C(N)=O)NC(=O)[C@H](CO)NC(=O)[C@H](C(C)C)NC(=O)[C@H](CC(C)C)NC(=O)[C@H](CC(N)=O)NC(=O)[C@H]2CCCN2C(=O)[C@H](C)N(C)C(=O)[C@H](C(C)C)NC(=O)[C@H](Cc2ccc(-c3ccccc3)cc2)NC1=O` [Example 1430] ({CH2CO}-Y(Carboxymethyl)[Phe(4-COOH)]DWL[Bip]V[NMeA][dP]NLVSCA-NH2; thioether N-14), the IC50 is 80 nM.
Then `CC(C)C[C@@H]1NC(=O)[C@H](Cc2c[nH]c3ccccc23)NC(=O)[C@H](CC(=O)O)NC(=O)[C@H](Cc2ccc(OCC(=O)O)cc2)NC(=O)[C@H](Cc2ccc(OCC(=O)O)cc2)NC(=O)CSC[C@@H](C(=O)N[C@@H](C)C(N)=O)NC(=O)[C@H](CO)NC(=O)[C@H](C(C)C)NC(=O)[C@H](CC(C)C)NC(=O)[C@H](CC(N)=O)NC(=O)[C@H]2CCCN2C(=O)[C@H](C)N(C)C(=O)[C@H](C(C)C)NC(=O)[C@H](Cc2ccc(-c3ccccc3)cc2)NC1=O` [Example 1432] ({CH2CO}-Y(Carboxymethyl)Y(Carboxymethyl)DWL[Bip]V[NMeA][dP]NLVSCA-NH2; thioether N-14), with 80 nM.
Then `CC(C)[C@@H]1NC(=O)[C@H](Cc2c[nH]c3ccccc23)NC(=O)[C@H](CC(=O)O)NC(=O)[C@H](Cc2ccc(C(=O)O)cc2)NC(=O)[C@H](Cc2ccc(OCC(=O)O)cc2)NC(=O)CSC[C@@H](C(=O)N[C@@H](C)C(N)=O)NC(=O)[C@H]([C@@H](C)O)NC(=O)[C@H](C(C)C)NC(=O)[C@H](CC2CCCCC2)NC(=O)[C@H](CCN)NC(=O)[C@H](Cc2ccc(O)cc2)N(C)C(=O)[C@H](CCCN)NC(=O)[C@H](CCC(=O)O)NC(=O)[C@H](Cc2ccc(-c3ccccc3)cc2)NC1=O` [Example 1433] ({CH2CO}-Y(Carboxymethyl)[Phe(4-COOH)]DWV[Bip]E[Orn][NMeY][Dab][Cha]VTCA-NH2; thioether N-14), with 260 nM; and `CC(C)[C@@H]1NC(=O)[C@H](Cc2c[nH]c3ccccc23)NC(=O)[C@H](CC(=O)O)NC(=O)[C@H](Cc2ccncc2)NC(=O)[C@H](CN)NC(=O)CSC[C@@H](C(=O)NCC(N)=O)NC(=O)[C@H](C(C)O)NC(=O)[C@H](C(C)C)NC(=O)[C@H](CC2CCCCC2)NC(=O)[C@H](CCN)NC(=O)[C@@H](C)N(C)C(=O)[C@H](CCCN)NC(=O)[C@H](CN)NC(=O)[C@H](Cc2ccc(-c3ccccc3)cc2)NC1=O` (stereo partly drawn) [Example 1434] ({CH2CO}-[Dap][4Pal]DWV[Bip][Dap][Orn][dNMeA][Dab][Cha]V[Thr(3ξ)]CG-NH2; thioether N-14), with 100 nM.
